Reference: patent US5767291A, “Phenyl heterocycles as cox-2 inhibitors” (Merck Frosst Canada, Inc., priority 1996, dated 1998)

Legend:
cyclooxygenase-1 (COX-1) [1] = target: T1, cyclooxygenase-1 (COX-1) (Homo sapiens, UniProt P23219); assay: Whole cell cyclooxygenase assay, COX-1 (PGE2 synthesis in response to arachidonic acid, radioimmunoassay), human U-937 cells; type: cell-based; conditions: read-out: Whole Cells COX-1 % inhib.; for inhibition at 0.1 µM: 100 nM; for inhibition at 0.01 µM: 10 nM
T1 construct: human U-937 cells (which specifically express cyclooxygenase-1); endogenous in cells; host or cells: human U-937 cells (whole cells, and microsomes prepared from them)
Protocol: (§1) Compounds were tested as inhibitors of cyclooxygenase activity in whole cell and microsomal cyclooxygenase assays. Both of these assays measured prostaglandin E2 (PGE2) synthesis in response to arachidonic acid, using a radioimmunoassay. Cells used for whole cell assays, and from which microsomes were prepared for microsomal assays, were human osteosarcoma 143 cells (which specifically express cyclooxygenase-2) and human U-937 cells (which specifically express cyclooxygenase-1). In these assays, 100% activity is defined as the difference between prostaglandin E2 synthesis in the absence and presence of arachidonate addition.

cyclooxygenase-2 (COX-2) [2] = target: T2, cyclooxygenase-2 (COX-2) (Homo sapiens, UniProt P35354); assay: Whole cell cyclooxygenase assay, COX-2 (PGE2 synthesis in response to arachidonic acid, radioimmunoassay), human osteosarcoma 143 cells; type: cell-based; conditions: read-out: Whole Cells COX-2 % inhib.; for inhibition at 0.1 µM: 100 nM; for inhibition at 0.01 µM: 10 nM
T2 construct: human osteosarcoma 143 cells (which specifically express cyclooxygenase-2); endogenous in cells; host or cells: human osteosarcoma 143 cells (whole cells, and microsomes prepared from them)
T2 sequence (P35354 18-604): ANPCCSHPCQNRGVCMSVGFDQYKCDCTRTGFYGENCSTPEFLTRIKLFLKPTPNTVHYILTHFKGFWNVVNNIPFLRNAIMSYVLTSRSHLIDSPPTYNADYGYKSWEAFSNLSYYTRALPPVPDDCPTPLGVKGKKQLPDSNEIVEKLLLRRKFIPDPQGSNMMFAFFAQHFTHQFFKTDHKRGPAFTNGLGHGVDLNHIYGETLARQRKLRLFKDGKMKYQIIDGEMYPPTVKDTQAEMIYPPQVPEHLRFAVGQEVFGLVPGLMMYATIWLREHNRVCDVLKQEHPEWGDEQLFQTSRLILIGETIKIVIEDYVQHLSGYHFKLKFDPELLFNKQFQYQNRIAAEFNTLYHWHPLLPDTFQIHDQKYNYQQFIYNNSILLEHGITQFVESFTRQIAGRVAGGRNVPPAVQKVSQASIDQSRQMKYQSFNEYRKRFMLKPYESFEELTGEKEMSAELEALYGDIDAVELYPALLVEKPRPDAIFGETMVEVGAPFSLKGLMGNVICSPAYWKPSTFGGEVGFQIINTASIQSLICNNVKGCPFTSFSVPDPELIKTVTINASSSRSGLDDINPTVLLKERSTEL
Protocol: as §1

cyclooxygenase-1 (COX-1) [3] = target: T1, cyclooxygenase-1 (COX-1); assay: Microsomal cyclooxygenase assay, COX-1 (PGE2 synthesis, microsomes of human U-937 cells); type: biochemical; conditions: for inhibition at 0.1 µM: 100 nM; for inhibition at 0.1 µM / inhibition at 0.01 µM / inhibition at 1 µM: read-out: Microsomes COX-1 % inhib.; for inhibition at 1 µM: 1000 nM
Protocol: as §1

cyclooxygenase-2 (COX-2) [4] = target: T2, cyclooxygenase-2 (COX-2); assay: Microsomal cyclooxygenase assay, COX-2 (PGE2 synthesis, microsomes of human osteosarcoma 143 cells); type: biochemical; conditions: for inhibition at 0.1 µM: 100 nM; for inhibition at 0.1 µM / inhibition at 0.01 µM / inhibition at 1 µM: read-out: Microsomes COX-2 % inhib.; for inhibition at 1 µM: 1000 nM
Protocol: as §1

T1 sequence (P23219 24-599): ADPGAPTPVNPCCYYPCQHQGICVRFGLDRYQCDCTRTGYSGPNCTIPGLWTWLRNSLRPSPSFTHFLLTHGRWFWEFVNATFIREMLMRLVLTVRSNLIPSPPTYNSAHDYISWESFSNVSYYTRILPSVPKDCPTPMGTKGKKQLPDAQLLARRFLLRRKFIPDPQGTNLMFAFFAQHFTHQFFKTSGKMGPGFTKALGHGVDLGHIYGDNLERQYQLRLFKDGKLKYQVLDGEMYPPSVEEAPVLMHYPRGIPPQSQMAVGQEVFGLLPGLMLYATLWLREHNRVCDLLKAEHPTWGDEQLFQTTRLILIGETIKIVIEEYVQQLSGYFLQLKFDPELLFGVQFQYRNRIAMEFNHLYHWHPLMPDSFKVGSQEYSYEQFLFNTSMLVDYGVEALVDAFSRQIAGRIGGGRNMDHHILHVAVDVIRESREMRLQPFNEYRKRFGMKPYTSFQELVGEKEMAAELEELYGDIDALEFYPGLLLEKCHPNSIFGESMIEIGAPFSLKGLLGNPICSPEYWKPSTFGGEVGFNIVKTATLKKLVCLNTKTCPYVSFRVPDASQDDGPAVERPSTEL

## CC(C)(O)c1cc(-c2ccc(S(N)(=O)=O)cc2)c(-c2ccc(F)cc2)s1 [Example 1]
cyclooxygenase-1 (COX-1) [1]
  inhibition at 0.1 µM: 12%
cyclooxygenase-2 (COX-2) [2]
  inhibition at 0.1 µM: 96%
cyclooxygenase-1 (COX-1) [3]
  inhibition at 0.1 µM: 8%
cyclooxygenase-2 (COX-2) [4]
  inhibition at 0.1 µM: 53%

## NS(=O)(=O)c1ccc(-c2ccsc2-c2ccc(F)cc2)cc1 [Example 2, 3-(4-(Aminosulfonyl)phenyl)-2-(4-fluorophenyl)thiophene]
cyclooxygenase-1 (COX-1) [1]
  inhibition at 0.01 µM: 0%
cyclooxygenase-2 (COX-2) [2]
  inhibition at 0.01 µM: 69%
cyclooxygenase-1 (COX-1) [3]; 10 nM
  inhibition at 0.01 µM: 25%
cyclooxygenase-2 (COX-2) [4]; 10 nM
  inhibition at 0.01 µM: 49%

## CS(=O)(=O)c1ccc(-c2cc(C(=O)O)sc2-c2ccc(C(=O)O)cc2)cc1 [Example 5, 5-(4-Carboxyphenyl)-4-(4-(methylsulfonyl)phenyl)thiophene-2-carboxylic acid]
cyclooxygenase-1 (COX-1) [1]
  inhibition at 0.01 µM: 0%
cyclooxygenase-2 (COX-2) [2]
  inhibition at 0.01 µM: 0%
cyclooxygenase-1 (COX-1) [3]; 10 nM
  inhibition at 0.01 µM: 31%
cyclooxygenase-2 (COX-2) [4]; 10 nM
  inhibition at 0.01 µM: 43%

## CS(=O)(=O)c1ccc(C2=C(c3ccc(F)cc3)C(=O)CC2)cc1 [Example 7, 2-(4-Fluorophenyl)-3-(4-(methylsulfonyl)phenyl)-2-cyclopenten-1-one]
cyclooxygenase-1 (COX-1) [1]
  inhibition at 0.1 µM: 0%
cyclooxygenase-2 (COX-2) [2]
  inhibition at 0.1 µM: 74%
cyclooxygenase-1 (COX-1) [3]
  inhibition at 1 µM: 16%
cyclooxygenase-2 (COX-2) [4]
  inhibition at 1 µM: 58%

## CS(=O)(=O)c1ccc(-c2cocc2-c2ccc(F)cc2)cc1 [Example 11, 3-(4-Fluorophenyl)-4-(4-(methylsulfonyl)phenyl)furan]
cyclooxygenase-2 (COX-2) [2]
  inhibition at 0.1 µM: 39%
cyclooxygenase-1 (COX-1) [3]
  inhibition at 0.1 µM: 7%
cyclooxygenase-2 (COX-2) [4]
  inhibition at 0.1 µM: 46%

## NS(=O)(=O)c1ccc(-c2sccc2-c2ccc(F)cc2)cc1 [Example 13, 2-((4-aminosulfonyl)phenyl)-3-(4-fluorophenyl)thiophene]
cyclooxygenase-2 (COX-2) [2]
  inhibition at 0.01 µM: 41%
  inhibition at 0.1 µM: 84%
cyclooxygenase-1 (COX-1) [3]; 10 nM, 0.01 µM
  Microsomes COX-1 % inhib.: 10%
cyclooxygenase-1 (COX-1) [3]; 10 nM
  inhibition at 0.01 µM: 7%
cyclooxygenase-2 (COX-2) [4]; 10 nM, 0.01 µM
  Microsomes COX-2 % inhib.: 58%
cyclooxygenase-2 (COX-2) [4]; 10 nM
  inhibition at 0.01 µM: 52%

## O=C(NS(=O)(=O)c1ccc(-c2ccsc2-c2ccc(F)cc2)cc1)C(F)(F)F [Example 14, 3-(4-(Trifluoroacetylaminosulfonyl)phenyl)-2-(4-fluorophenyl)thiophene]
cyclooxygenase-2 (COX-2) [2]
  inhibition at 0.01 µM: 73%
  inhibition at 0.1 µM: 89%
cyclooxygenase-2 (COX-2) [2]; 1000 nM
  inhibition at 1 µM: 101%
cyclooxygenase-1 (COX-1) [3]; 10 nM
  inhibition at 0.01 µM: 29%
cyclooxygenase-1 (COX-1) [3]
  inhibition at 0.1 µM: 0%
  inhibition at 1 µM: 0%
cyclooxygenase-2 (COX-2) [4]; 10 nM
  inhibition at 0.01 µM: 45%
cyclooxygenase-2 (COX-2) [4]
  inhibition at 0.1 µM: 63%
  inhibition at 1 µM: 69%
